Tests used:
Assay type in all cases: cell-based, human
COV362 cells = assay: Cell viability assay (dose-response); conditions: read-out: IC50 for cisplatin
Description: (§1) Cell viability was measured by MTS assay (Abcam, #ab197010) or by CellTiter-Glo™ assay (Promega, #G7570). Cells were seeded at 96-well plates at densities of 2000˜5000 cells per well overnight. Treatment was added to the cells at indicated concentrations for 72 h. Cell viability was measured by incubating with MTS reagent for 4 h and reading absorbance at 490 nm or incubating with CellTier-Glo™ reagent for 10 min and reading luminescence by a plate reader. Six replicates were used for each group.
(§2) In addition, isogenic PEO1/PEO4 cell lines derived from the same patient were studied, at the time of a platinum sensitive (PEO1) and platinum resistant-recurrence (PEO4).
(§3) Having shown decreased glucose-derived anabolism and increased fatty acid uptake in cisplatin-resistant ovarian cancer cells, whether this metabolic feature can be used for differentiation of cisplatin-resistant from cisplatin-sensitive cancer cells was explored. […] In Table 2 below, quantitation of glucose-d7 (G-d7), PA-d31, and OA-d34 are shown as area fraction of C-D signal out of total cellular area, in mean values.

COV362-cisR cells = assay: Cell viability assay (dose-response); conditions: read-out: IC50 for cisplatin; COV362-cisR cells
Description: as §1, §2, §3

OVCAR5 cells [1] = assay: Cell viability assay (dose-response); conditions: read-out: IC50 for cisplatin; OVCAR5 cells
Description: as §1, §2, §3

OVCAR5-cisR cells [2] = assay: Cell viability assay (dose-response); conditions: read-out: IC50 for cisplatin; OVCAR5-CisR cells
Description: as §1, §2, §3

PEO1 cells [3] = assay: Cell viability assay (dose-response); conditions: read-out: IC50 for cisplatin; PE01 cells
Description: as §1, §2, §3

PEO4 cells [4] = assay: Cell viability assay (dose-response); conditions: read-out: IC50 for cisplatin; PE04 cells
Description: as §1, §2, §3

SKOV3-cisR cells = assay: Cell viability assay (dose-response); conditions: read-out: IC50 for cisplatin; SKOV3-CisR cells
Description: as §1, §2, §3

[5] = test system: cisplatin-resistant OC cell lines; assay: Cisplatin dose response, resistant versus parental cell lines; conditions: all the resistant cell lines versus parental
Source text: Ovarian cancer cell lines used in the methods include SKOV3, PEO1, OVCAR5, and COV362, and their cisplatin-resistant counterparts include SKOV3-cisR, PEO4, OVCAR5-cisR, and COV362-cisR. SKOV3 (Cat #: HTB-77), Mia Paca2 (Cat #: CRL-1420), MDA-MB-231 (Cat #: CRM-HTB-26) and A549 (Cat #: CCL-185) cells were purchased from the American Type Culture Collection (ATCC, Manassas, VA). PEO1 (Cat #: 10032308) and PEO4 (Cat #: 10032309) were purchased from Sigma Aldrich. OVCAR5 cells were a generous gift from Dr. Marcus Peter, Northwestern University, and COV362 cells were from Dr. Kenneth Nephew, Indiana University. All cell lines were authenticated and tested to be mycoplasma negative. Mia Paca2 and A549 are in the list of known misidentified cell lines maintained by the International Cell Line Authentication Committee, while their authentication was performed by ATCC through STR profiling. […] Surviving cells were allowed to recover for 3 to 4 weeks before receiving the next treatment. […]
Cell viability was measured by MTS assay (Abcam, #ab197010) or by CellTiter-Glo™ assay (Promega, #G7570). […] Cell viability was measured by incubating with MTS reagent for 4 h and reading absorbance at 490 nm or incubating with CellTier-Glo™ reagent for 10 min and reading luminescence by a plate reader. […]

PEO1 cells [6] = assay: OCR and ECAR by Seahorse analysis; conditions: 13.2 μM cisplatin
Description: (§4) Cell lines were seeded in a Seahorse® XF96 Cell Culture Microplate (Agilent) at density of 6×10^4 (OVCAR5 pair) or 4×10^4 (PEO pair) per well. After incubation at 37° C. overnight for cell attachment, OCR, and extracellular acidification rate (ECAR) were measured through Seahorse® XFe96 Analyzer (Agilent). Measurement time was 30 seconds following 3 minutes mixture and 30 seconds waiting time. First three cycles were used for basal respiration measurement. […] Basal respiration, ATP production and maximal respiration reduction were calculated following the manufacturer's instructions.

PEO4 cells [7] = assay: OCR and ECAR by Seahorse analysis; conditions: 13.2 μM cisplatin
Description: as §4

OVCAR5 cells [8] = assay: Reactive oxidative species measurement (DCFDA); conditions: cisplatin 1.6 μM or 3.3 μM for 24 hours
Description: (§5) Cellular reactive oxidative species (ROS) was measured using a fluorescent probe, 2′,7′-Dichlorofluorescin diacetate (DCFDA) (Sigma Aldrich). […] DCFDA was added to the medium at final concentration of 10 μM and incubated for 15 min. After washing with PBS for 3 times, cells were immediately imaged under confocal microscope (Zeiss LSM 700 microscope) with 488 nm as the exciting source. Laser power was controlled at low setting to avoid fluorescence extinction. Images at ˜10 field of view were acquired for each sample.

OVCAR5-cisR cells [9] = assay: Reactive oxidative species measurement (DCFDA); conditions: cisplatin 1.6 μM or 3.3 μM for 24 hours
Description: as §5

OVCAR5 cells [10] = assay: Glucose uptake assay (2-NBDG); conditions: 3.3 μM cisplatin for 24 hours, 100 μM 2-NBDG for 2 hours
Description: Glucose uptake was measured using a fluorescent glucose analog 2-deoxy-2-[(7-nitro-2,1,3-benzoxadiazol-4-yl) amino]-D-glucose (2-NBDG) (Cayman Chemicals). Cells seeded in glass-bottom dishes were incubated with 100 μM 2-NBDG for 2 h. Fluorescent images were taken by confocal microscope (Zeiss® LSM 700 microscope) with 488 nm laser as excitation source. Images at ˜10 field of view were acquired for each sample.

A549 lung cancer = assay: Cell viability assay (dose-response); conditions: 6.6 μM cisplatin
Description: as §1
(§6) Platinum is widely used across malignancies. […] These findings are broadly applicable to multiple types of cisplatin-resistant cancers. FIG. 8 illustrates the cellular metabolism switch from glycolysis to fatty acid oxidation with decreased glucose uptake, glycolysis and de novo lipogenesis while fatty acid uptake and oxidation are increased.

MD-MBA231 breast cancer = assay: Cell viability assay (dose-response); conditions: 6.6 μM cisplatin
Description: as §1, §6

[11] = test system: MIA PaCa-2 pancreatic cancer; assay: Cell viability assay (dose-response); conditions: 6.6 μM cisplatin
Description: as §1, §6

A549 cells = assay: Isotope labeling and SRS imaging after cisplatin treatment; conditions: 13.2 μM cisplatin for 48 hours, then 100 μM PA-d31 or OA-d34 for 6 h
Description: (§7) For labeling with glucose-d7, media was replaced with glucose-free DMEM medium (Thermo Fisher Scientific, #11966025)+10% FBS+P/S supplemented with 25 mM glucose-d7 after seeding the cells in 35 mm glass-bottom dishes overnight. For labeling with FA or analogs, including PA-d31, OA-d34, and ODYA, FA or analogs were added to the culture media at final concentration of 100 μM and cells were treated for 6 h. For quantitative SRS imaging, cells on glass-bottom dishes were fixed with 10% neutral buffered formalin for 30 min and washed with PBS for 3 times. Hyperspectral SRS imaging was performed to the cells at Raman spectral region from 2100 to 2300 cm^−1.
as §6

MD-MBA231 cells = assay: as above; conditions: 6.6 μM cisplatin for 24 hours, then 100 μM PA-d31 or OA-d34 for 6 h
Description: as §7, §6

MIA PaCa-2 cells = assay: as above; conditions: 6.6 μM cisplatin for 24 hours, then 100 μM PA-d31 or OA-d34 for 6 h
Description: as §7, §6

N.N.[Cl][Pt][Cl] [cisplatin]
IC50 (COV362 cells): 7.19 µM
IC50 (COV362-cisR cells): 15.2 µM
IC50 (OVCAR5 cells [1]): 8.26 µM
IC50 (OVCAR5-cisR cells [2]): 17.4 µM
IC50 (PEO1 cells [3]): 4.72 µM
IC50 (PEO4 cells [4]): 13.6 µM
IC50 (SKOV3-cisR cells): 17.3 µM
increase of IC50 compared to parental counterpart cell lines [5]: 2-3 fold
ECAR rate (PEO1 cells [6]): promptly lowered
OCR (PEO1 cells [6]; before and 30 minutes after): slight increase of OCR
ECAR rate (PEO4 cells [7]): promptly lowered
OCR (PEO4 cells [7]; before and 30 minutes after): slight increase of OCR
ROS production (DCF fluorescent signal intensity) (OVCAR5 cells [8]): significant increase of ROS production
ROS production (DCF fluorescent signal intensity) (OVCAR5-cisR cells [9]): significant increase of ROS production
glucose uptake, measured by 2-NBDG (OVCAR5 cells [10]): reduced
cell death (A549 lung cancer): no significant cell death
cell death (MD-MBA231 breast cancer): no significant cell death
cell death [11]: no significant cell death
PA-d31 and OA-d34 uptake (C-D signal) (A549 cells): significant increase
PA-d31 and OA-d34 uptake (C-D signal) (MD-MBA231 cells): significant increase
uptake of PA-d31 and OA-d34 (C-D signal) (MIA PaCa-2 cells): significantly increased
